Source: patent US12384771B2, “Pleuromutilin derivative containing thiazole-pyridine benzyl quaternary ammonium salt side chain and preparation method and use thereof” (SHAANXI UNIVERSITY OF SCIENCE AND TECHNOLOGY, priority 2022, dated 2025)
Structures can show the parent of a compound that is named as a salt.

How the values were obtained:
Type in all cases: cell-based
[1] = tested on: methicillin-resistant Staphylococcus aureus (MRSA) 18-209; assay: MIC, clinical drug-resistant bacteria; conditions: MRSA 18-209, read-out: Minimum inhibitory concentration against clinical drug-resistant bacteria
Procedure: (§1) The minimum inhibitory concentration (MIC) of the pleuromutilin derivative containing thiazole-pyridine benzyl quaternary ammonium salt side chain was tested with moxifloxacin as a positive control (purchased from Shanghai Macklin Biochemical Technology Co., Ltd.) using a microbroth dilution method. At the same time, the pleuromutilin derivative containing thiazole-pyridine benzyl quaternary ammonium salt side chain of the invention was compared with the marketed pleuromutilin antibiotics, such as retapamulin (purchased from Nanjing Chemlin Chemical Industry Co., Ltd.), tiamulin (purchased from Shanghai Yuanye Bio-Technology Co., Ltd) and valnemulin (purchased from Shanghai Acmec Biochemical Co., Ltd), in order to screen out pleuromutilin derivatives with better activity.
(§2) Clinical resistant bacteria include multidrug-resistant Pseudomonas aeruginosa (MDR-PA) 18-993, 18-756 and 18-126, multidrug-resistant Klebsiella pneumoniae (MDR-KP) 18-893, 18-754 and 18-1482, methicillin-resistant Staphylococcus aureus (MRSA) 18-171, 18-209 and 18-575, vancomycin-resistant Enterococcus faecalis (VRE) 18-94, 18-80 and 18-507, and carbapenem-resistant Acinetobacter baumannii (CR-AB) 18-184, 18-560 and 18-882, all the clinical drug-resistant strains were from Huashan Hospital, Fudan University.

[2] = tested on: methicillin-resistant Staphylococcus aureus (MRSA) 18-171; assay: MIC, clinical drug-resistant bacteria; conditions: MRSA 18-171, read-out: Minimum inhibitory concentration against clinical drug-resistant bacteria
Procedure: as §1, §2

[3] = tested on: multidrug-resistant Pseudomonas aeruginosa (MDR-PA) 18-756; assay: MIC, clinical drug-resistant bacteria; conditions: MDR-PA 18-756, read-out: Minimum inhibitory concentration against clinical drug-resistant bacteria
Procedure: as §1, §2

[4] = tested on: vancomycin-resistant Enterococcus faecalis (VRE) 18-94; assay: MIC, clinical drug-resistant bacteria; conditions: VRE 18-94; read-out: Minimum inhibitory concentration against clinical drug-resistant bacteria
Procedure: as §1, §2

[5] = tested on: multidrug-resistant Pseudomonas aeruginosa (MDR-PA) 18-126; assay: MIC, clinical drug-resistant bacteria; conditions: MDR-PA 18-126, read-out: Minimum inhibitory concentration against clinical drug-resistant bacteria
Procedure: as §1, §2

[6] = tested on: carbapenem-resistant Acinetobacter baumannii (CR-AB) 18-560; assay: MIC, clinical drug-resistant bacteria; conditions: CR-AB 18-560, read-out: Minimum inhibitory concentration against clinical drug-resistant bacteria
Procedure: as §1, §2

[7] = tested on: multidrug-resistant Klebsiella pneumoniae (MDR-KP) 18-893; assay: MIC, clinical drug-resistant bacteria; conditions: MDR-KP 18-893, read-out: Minimum inhibitory concentration against clinical drug-resistant bacteria
Procedure: as §1, §2

[8] = tested on: multidrug-resistant Klebsiella pneumoniae (MDR-KP) 18-1482; assay: MIC, clinical drug-resistant bacteria; conditions: MDR-KP 18-1482, read-out: Minimum inhibitory concentration against clinical drug-resistant bacteria
Procedure: as §1, §2

[9] = tested on: carbapenem-resistant Acinetobacter baumannii (CR-AB) 18-882; assay: MIC, clinical drug-resistant bacteria; conditions: CR-AB 18-882, read-out: Minimum inhibitory concentration against clinical drug-resistant bacteria
Procedure: as §1, §2

[10] = tested on: multidrug-resistant Klebsiella pneumoniae (MDR-KP) 18-754; assay: MIC, clinical drug-resistant bacteria; conditions: MDR-KP 18-754, read-out: Minimum inhibitory concentration against clinical drug-resistant bacteria
Procedure: as §1, §2

[11] = tested on: vancomycin-resistant Enterococcus faecalis (VRE) 18-80; assay: MIC, clinical drug-resistant bacteria; conditions: VRE 18-80; read-out: Minimum inhibitory concentration against clinical drug-resistant bacteria
Procedure: as §1, §2

[12] = tested on: Mycoplasma hyopneumoniae clinical isolate LH strain (Mhp-LH); assay: Anti-mycoplasma activity assay, MIC; conditions: Mesomycoplasma hyopneumoniae
Procedure: The minimum inhibitory concentration of the pleuromutilin derivative containing thiazole-pyridine benzyl quaternary ammonium salt side chain against different mycoplasmas was tested with tiamulin as (purchased from Shanghai Yuanye Bio-Technology Co., Ltd) a positive control using a microbroth dilution method, and the antibacterial effect of the compound against different mycoplasmas was evaluated.
Experimental strains include Mycoplasma hyopneumoniae standard strain J strain (Mhp-J; NCTC 10110), Mycoplasma hyopneumoniae clinical isolate LH strain (Mhp-LH), Mycoplasma hyorhini standard strain BTS-7 strain (Mhr-BTS-7; NCTC 10130), Mycoplasma gallisepticum R strain (MG-R) and Mycoplasma synoviae WVU1853 strain (MS-WVU1853; NCTC 10124) (purchased from National Collection of Type Cultures, United Kingdom).
The specific operation steps are as follows: • (1) preparation of KM2 medium: 38.9 g of KM2 medium (purchased from Guangdong Huankai Microbial Sci. & Tech. Co., Ltd.) was weighed, added to 800 mL of distilled water, boiled and dissolved, and autoclaved at 115° C. for 20 min for later use. • (2) preparation of bacterial liquid stock: 0.5 mL of each of Mycoplasma hyopneumoniae (Mhp), Mycoplasma hyorhina (Mhr), Mycoplasma gallisepticum (MG) and Mycoplasma synoviae (MS) was taken and transferred to 4.5 mL of KM2 liquid medium, and when the colour of the medium turned yellow, each of the bacteria was sub-packaged at 0.5 mL per tube, and stored as the bacterial liquid at −70° C. • (3) determination of bacterial liquid titre (colour change unit, CCU): 96-well plate method was used to measure the bacterial liquid titre. The preserved bacterial liquid stock was taken from −70° C., melt and equilibrated to room temperature. 0.18 mL of KM2 medium was added to each well of the middle 4 rows of the 96-well plate (that is, 4 parallels), 0.02 mL of the bacterial liquid stock was taken and added to the wells of the first column, respectively, and subjected to 10-fold dilution until 10^−11. A negative control containing only KM2 medium was set (column 12). The plate was sealed and put into an incubator at 37° C., and the results were observed day by day. The highest dilution at which the colour of the medium can change was the CCU/mL of the strain. • (4) determination of MIC: the minimum inhibitory concentration of the compound against mycoplasmas was determined by a microbroth dilution method. Each drug to be tested was prepared as a stock solution with a concentration of 2560 μg/mL, and each drug stock solution was 2-fold diluted with KM2 liquid medium, and the test concentration range was 0.015-128 μg/mL (large concentration gradient) and 0.000004-0.06 μg/mL (small concentration gradient). An appropriate amount of seed bacterial liquid was taken and diluted to 10^4 CCU/mL serially according to its titre. Drugs of various dilutions were added sequentially to the 96-well plate, and then an equal amount of diluted bacterial liquid was added. 200 μL of diluted mycoplasma liquid was set as a positive control, 200 μL of KM2 liquid culture medium was set as a negative control, and a solvent control group (10 μL of drug solvent+190 μL of mycoplasma liquid) was also set. Three parallels were set for each experiment. After all the culture plates were sealed, they were allowed to culture at 37° C. and observed daily, and the final MIC values were recorded. (See FIG. 22 for the MIC determination results of the representative compound 7 against 5 mycoplasma strains)

## C=C[C@]1(C)C[C@@H](OC(=O)CSc2nc(-c3cc[n+](Cc4ccc([N+](=O)[O-])cc4)cc3)cs2)[C@]2(C)[C@H](C)CC[C@]3(CCC(=O)[C@H]32)[C@@H](C)[C@@H]1O [Compound 7, 1-(4-(nitro)benzyl)-4-(2-(8-hydroxy-4,7,9,12-tetramethyl-3-oxo-7-vinyldecahydro-4,9a-propancyclopent[8]cyclen-5-yl)oxy)-2-oxoethyl)thiazol-4-yl)pyridyl bromide salt]
[1]
  MIC: 16 µg/mL
[2]
  MIC: 64 µg/mL
[3]
  MIC: 32 µg/mL
[4]
  MIC: 64 µg/mL
[5]
  MIC: 8 µg/mL
[6]
  MIC: 64 µg/mL
[7]
  MIC: 16 µg/mL
[8]
  MIC: 16 µg/mL
[9]
  MIC: 16 µg/mL
[10]
  MIC: 16 µg/mL
[11]
  MIC: 8 µg/mL
[12]
  MIC: 0.002 µg/mL
